The source of these data is publication PMC12040169 (PLOS Biology, 2025).

This data set in a line: in vitro. Conditions: human, hela cells, % viability.

For the molecule `CCn1cnc2cc(NC(=O)C3CC4C=CC3C43CC3)ccc21` (stereo not shown) [CBK281384], the viability – broadly, a read-out of living cells in per cent, often relative to untreated cells – at 28.5 h, 10 µM was found to be 73.8%.
Next, `CCn1nc(C)c(C(C)NC(=O)CC(C)n2nc(C)cc2C)c1C` (stereo not shown) [CBK281533]: 78.9%; `COc1cc(/C=N/NC(=O)CCN2CCN(C)CC2)cc2c1OCO2` [CBK261504]: 116%; `Cc1c(C(=O)N(C)Cc2nc3ccccc3s2)nnn1C1CCNCC1` [CBK306501C]: 85.9%.
For the molecule `CC(Oc1ccc(Cl)cc1Cl)C(=O)N1CCN(Cc2ccc3c(c2)OCO3)CC1` (stereo not shown) [CBK074438], the viability at 28.5 h, 10 µM worked out at 95.2%.
The figure for `COc1ccccc1/C=N/C12CN3CN(CN(C3)C1)C2` [CBK261387] is 93%.
Next, `Nc1ccc(Sc2nc3ccccc3nc2C(F)(F)F)cc1` [CBK089560]: 100%; `O=C(/C=C(\c1ccccc1)n1cncn1)c1ccc(Cl)cc1` [CBK262089]: 90.7%.
Next, `CCN(C(=O)c1cnc2scc(C)n2c1=O)c1ccccc1` [CBK287452]: 105%.
In the case of `COCOc1ccc(-c2nccnc2OCCc2cccs2)cc1` [CBK106911], the viability at 28.5 h, 10 µM worked out at 106%.
On to `CCc1nn(CCN2CCCC2)c(=O)c2cc3sc(C)cc3n12` [CBK284098], for which the viability at 28.5 h, 10 µM came out at 88.5%.
Next, `N#Cc1c(F)cccc1N1CCCC(C(=O)Nc2nncs2)C1` (stereo not shown) [CBK306335]: 96.8%.
Next, `CN1CC2(CCCN(Cc3noc(-c4ccccc4)n3)C2)OC1=O` (stereo not shown) [CBK306952]: 93%.
Turning to `CC1=NC2c3ccsc3C=CC2S1` (stereo not shown) [CBK008720], the viability at 28.5 h, 10 µM worked out at 112%.
Next, `CC1C(c2ccccc2)CCC(C(=O)O)C1C(=O)O` (stereo not shown) [CBK286566]: 90.5%; `O=C(O)c1cc(S(=O)(=O)Nc2nnc(C(F)(F)F)s2)c(F)cc1Cl` [CBK062022]: 95%; `NC(=O)Cn1cc(CNC2(c3ccccc3)CC2)c2ccccc21` [CBK282776]: 94.9%.
The figure for `CCCN1CCN(c2ncnc3sc(C4COc5ccccc5O4)cc23)CC1` (stereo not shown) [CBK269396] is 98.1%; for `C[C@]12CN(C(=O)c3ccccc3)C[C@H]1NC(=O)c1ccccc1C2=O` [CBK281657] it is 102%.
The figure for `CN(C)CCN(C)C(=O)Cc1csc(-c2ccccc2F)n1` [CBK282173] is 112%.
For `CN1CC=C(/C=C/c2ccc(Sc3ncccn3)o2)CC1` [CBK283797], the viability at 28.5 h, 10 µM came out at 82.3%.
The figure for `Cc1ccc(CCCC(=O)N2CCc3c([nH]c4c(C)cccc34)C23CCN(Cc2ccc(F)cc2)C3)cc1` (stereo not shown) [CBK066979] is 99.2%; for `COc1cccc(NC(=O)c2cnc(-c3ccccc3)c(-c3cccnc3)c2)c1OC` [CBK037487] it is 92.8%; for `Nc1ccc(Cl)cc1C(O)(CCCN1CCCCC1)c1ccccc1` (stereo not shown) [CBK023107] it is 98.1%.
The figure for `CCCCC(=O)N(C)c1c(CC)nc2c(OCc3ccc(C#N)cc3)cccn12` [CBK147779] is 94.6%; for `O=C(O)c1cccc(NS(=O)(=O)c2ccc(Br)cc2C(F)(F)F)c1` [CBK155724] it is 90.9%; for `Nc1nnc(Nc2ccc(Cl)cc2)[nH]1` [CBK017433] it is 91.7%.
The figure for `COC1C(O)C(CO)OC1n1cc(F)c(SC)nc1=O` (stereo not shown) [CBK201267] is 106%.
Regarding `CN(C(=O)c1ccc(-n2nncc2-c2ccccc2)cc1)c1ccccc1` [CBK288107], the viability at 28.5 h, 10 µM is 108%.
Next, `CCn1cc(C(=O)NN)c(=O)c2cc(F)c(N3CCSCC3)cc21` [CBK307148]: 98.8%.
Next, `CCN(CC)CCN1CCN(c2cc(-c3ccc(OC(F)(F)F)cc3)ncn2)CC1` [CBK037756]: 96.3%.
Next, `CN1CCN(C(=O)c2ccsc2NS(=O)(=O)Cc2ccccc2)CC1` [CBK042266]: 97.5%.
Take `O=C(C(Cc1ccccc1)c1ccccc1)N1CCC2(CCN(CCCCOc3ccccc3)C2)C1` (stereo not shown) [CBK160643]: the viability at 28.5 h, 10 µM was 101%.
For the molecule `O=C(c1c(F)cccc1F)N1CCC(O)(c2ccccn2)CC1` [CBK283670], the viability at 28.5 h, 10 µM is 105%.
Next, `O=C(c1ccc(F)cc1)[C@H]1CCCN(C(=O)c2cc(C3CC3)n[nH]2)C1` [CBK282410]: 99.6%.
Consider `O=C(O)CCCn1c(-c2cccc([N+](=O)[O-])c2)nc(=S)c2c1CCCC2` [CBK265657], for which the viability at 28.5 h, 10 µM was found to be 101%.
As to `CCCC12CN3CC(CCC)(CN(C1)C3c1ccc([N+](=O)[O-])cc1)C2=O` (stereo not shown) [CBK264481], the viability at 28.5 h, 10 µM came to 101%.
The figure for `c1coc(C2N3CCC4(CC3)c3[nH]c5ccccc5c3CCN24)c1` (stereo not shown) [CBK282862] is 112%; for `CC(=O)N1CCCc2cc(C(O)CN3CCCC(C)C3)ccc21` (stereo not shown) [CBK282142] it is 84.1%.
Take `CC(C)(C)NC(=O)C1C2CCC3(CC(=O)c4ccccc4O3)C21` (stereo not shown) [CBK284821]: the viability at 28.5 h, 10 µM was 81.8%.
Next, `Nc1nc2c(nc(O)n2[C@@H]2O[C@H](CO)[C@H](O)C2O)c(=O)[nH]1` (stereo partly shown) [CBK201297]: 88.5%; `C(#Cc1cccc(-c2nc3ccccc3nc2-c2cccc(C#Cc3ccc(Sc4ccccc4)cc3)c2)c1)c1ccc(Sc2ccccc2)cc1` [CBK261158]: 93.2%; `Cc1sc2[nH]c(CCC(=O)N3CCCC(C)CC3)nc(=O)c2c1C` (stereo not shown) [CBK305807]: 103%.
Next, `Cc1c(Br)c(C(F)(F)F)nn1CC(=O)NCCN1CCOCC1` [CBK018700]: 107%; `FC(F)(F)c1cccc(NC(=S)Nc2ccc(Cc3ccncc3)cc2)c1` [CBK267251]: 89.1%; `CCOC(=O)C1(C2CCCCC2)CCN(C(=O)c2cc(C)[nH]n2)CC1` [CBK137100]: 96.2%.
The figure for `CN(c1ncc(-c2cc3ccccc3o2)cc1C(=O)Nc1ccc2c(c1)OCO2)S(C)(=O)=O` [CBK106464] is 101%.
With `CCN(C(=O)C(C)N(C)Cc1c(C)nn(C2CCS(=O)(=O)C2)c1C)c1cccc2ccccc12` (stereo not shown) [CBK295206], the viability at 28.5 h, 10 µM is 108%.
On to `O=C(Nc1nc2c(s1)CCCCC2)C1CN(C(=O)Cc2ccc(F)cc2)C1` [CBK285904], for which the viability at 28.5 h, 10 µM came to 87.2%.
As for `Cc1ccc(-c2oncc2C(=O)NCc2ccc(S(N)(=O)=O)cc2)cc1` [CBK154912], the viability at 28.5 h, 10 µM came to 102%.
`Nc1nc(=O)c2cnc3c(Cl)cccc3c2s1` [CBK291229]: the viability at 28.5 h, 10 µM turned out to be 89.5%.
The figure for `O=C(c1[nH]c2ccccc2c1NS(=O)(=O)Cc1ccccc1)N1CCOCC1` [CBK050067] is 99.5%; for `O=C1N/C(=C/c2cccs2)C(=O)N1Cc1ccccc1F` [CBK265601] it is 109%; for `O=C(Cc1ccccc1)N1CCC(CC(=O)N2CCC3(CCCCC3)C2)CC1` [CBK286031] it is 93.8%.
For the molecule `O=C1C2CCCCC2C(=O)N1CCCN1CCC(c2nc(-c3ccc(F)cc3)c3ccccn23)CC1` (stereo not shown) [CBK035972], the viability at 28.5 h, 10 µM was 90.1%.
Next, `COc1ccc(-c2nnc(SCCC(=O)O)n2C)cc1OC` [CBK268902]: 98.8%; `COC(=O)Nc1ccc2c(c1)N(C(=O)CCN1CCOCC1)c1ccccc1CC2` [CBK261284C]: 95.9%; `c1ccc(C[n+]2cn3cc(-c4ccccc4)nc3[n-]2)cc1` [CBK261654]: 94%.
The figure for `Cc1ccc(S(=O)(=O)Nc2ccc3c(c2)CC(=O)N3)cc1` [CBK287657] is 92.1%; for `O=c1[nH]c(=O)n([C@H]2C[C@@H](O)[C@@H](CO)O2)cc1O` [CBK201317] it is 101%; for `Cc1n[nH]c(C)c1-c1ccc2c(cnn2C)c1` [CBK307314] it is 70.3%.
Consider `CC(C)N(C)C(=O)Cc1csc(N)n1` [CBK014608], for which the viability at 28.5 h, 10 µM was 100%.
Next, `COc1cc(C(C)c2cc3c(cc2OCC(=O)O)OCO3)cc(OC)c1OC` (stereo not shown) [CBK200109]: 90.5%.
Next, `CC(C)(CN1CCCC1)CN1CCC(O)(c2ccccc2F)CC1` [CBK282798]: 93.4%.
Regarding `COC(C)(C)C(=O)N1CCC2(C/C=C/Cc3ccccc3OCC(=O)NCCNC2=O)CC1` [CBK292001], the viability at 28.5 h, 10 µM amounted to 105%.
In the case of `O=C(NCc1ccc(F)cc1)c1ccc(=O)n(CC(=O)N2CCC3(CCCCC3)C2)c1` [CBK286021], the viability at 28.5 h, 10 µM is 109%.
Next, `COc1ccc(C(=O)C2CCN(Cc3cccc4cccnc34)CC2)cc1` [CBK295192]: 85.3%; `CC(C)(CO)CNc1cc(Cl)nc2ccnn12` [CBK037200]: 91%.
On to `O=C(O)Cn1cc(C(C(=O)O)N2CCN(c3ccccc3)CC2)c2ccccc21` (stereo not shown) [CBK286625], for which the viability at 28.5 h, 10 µM was determined as 78.1%.
Next, `CCn1cc(CN2CCCCCC2c2cc(C)on2)c(C)n1` (stereo not shown) [CBK282140]: 80.7%; `COc1ccc(NC(=O)c2cc(C(F)(F)F)cc(C(F)(F)F)c2)cn1` [CBK057634]: 85.1%; `Cc1nc(C2CCN(C(=O)CC3CCCC3)CC2)ncc1C(=O)Nc1ccc(Cl)cc1` [CBK285847]: 97.8%.
The figure for `O=C1CC(C(=O)Nc2cccc(C(=O)O)c2)C(c2ccccc2)O1` (stereo not shown) [CBK293968] is 87.1%; for `O=C(O)/C=C/c1cn(-c2ccccc2)nc1-c1cccs1` [CBK263119] it is 102%.
Next, `CN1CCC[C@H]1c1nc(-c2ccnc(NS(C)(=O)=O)c2)no1` [CBK288884]: 86.8%.
In the case of `Cc1ccc(CS(=O)(=O)NCCn2nc(C)c(C)c2C)cc1` [CBK281383], the viability at 28.5 h, 10 µM stood at 91.2%.
Next, `Cc1c(O)ccc2c(COC(=O)C3(c4ccccc4)CCCC3)cc(=O)oc12` [CBK295622]: 98.8%; `CCOc1ccc(CNCCc2ccc(S(N)(=O)=O)cc2)cc1` [CBK268090C]: 94.6%.
Take `COc1ccc([N+](=O)[O-])cc1NC(=O)c1cc(-c2ccccc2Cl)nc2ccc(C)cc12` [CBK267764]: the viability at 28.5 h, 10 µM is 94.1%.
